From patent US20070148262A1 (priority 2005, published 2007)

Key:
Salmonella cholerasuis = test: comparison of antibacterial effects: Green-zone A vs malic acid and grapefruit seed extract; assay type: cell-based; design: key: NBD: No Bacteria Detected; BD: Bacteria Detected; settings: 5% organic matter dilution (yeast extract, hard water)
Protocol: The antibacterial effect of Green-zone A prepared in Example 1 was compared to the effect of each of malic acid and grapefruit seed extract alone.
A bacterial strain used in the test of antibacterial activity was Salmonella cholerasuis. The Salmonella strain was cultured in nutrient medium at 37° C. for 24 hours and used at a concentration of 5×10^8 cells/ml of the nutrient medium.
Green-zone A prepared in Example 1 was undiluted and diluted 2-fold and 5-fold with hard water. Meanwhile, a composition of 50 g malic acid completely dissolved in 200 ml of purified water, and a composition of 6 g grapefruit seed extract completely dissolved in 200 ml of distilled water, were undiluted and diluted 2-fold and 5-fold.
4 ml of the prepared Salmonella strain was mixed with 96 ml of 5% organic matter dilution (4° C., 5% yeast extract, pH 7.0, diluted with hard water). 2.5 ml of the mixture solution was taken and allowed to react at 4° C. for 30 minutes.
After completion of the reaction, 1 ml of the bacterial dilution was added and mixed with 9 ml of neutralizing medium (containing 5% horse serum inactivated in nutrient medium) at 37° C. Then, the mixture was added into test tubes containing 0.1 ml of each of nutrient media, and was proliferated in an incubator at 37° C. for 48 hours.
After completion of the proliferation, the […] was re-inoculated into blood medium and measured for the bactericidal activity of each of the compositions (Table 15).

[1] = test system: avian influenza viruses (AIV) (field isolate No. 02-8, virus strain K228); assay type: cell-based

Compound: O=C(O)CC(O)C(=O)O (stereo not shown) [Malic acid, malic acid]
- bactericidal activity (Salmonella cholerasuis; Original solution): NBD
- bactericidal activity (Salmonella cholerasuis; dilution 1:2): BD
- bactericidal activity (Salmonella cholerasuis; dilution 1:5): BD
- disinfectant effects up to dilutions of [1]: no disinfectant effects
